The source of these data is publication PMC12419465, “Photoresponsive molecular tweezers modulate Taspase 1 activity” (RSC Chemical Biology, 2025).

Like-named read-outs stand apart in the source and are kept apart here.

Experiment [1] concerns the target T1, full-length, proteolytically inactive Taspase 1 (Homo sapiens, UniProt Q9H6P5, D233A/T234A).
T1 sequence (Q9H6P5 1-420 D233A/T234A): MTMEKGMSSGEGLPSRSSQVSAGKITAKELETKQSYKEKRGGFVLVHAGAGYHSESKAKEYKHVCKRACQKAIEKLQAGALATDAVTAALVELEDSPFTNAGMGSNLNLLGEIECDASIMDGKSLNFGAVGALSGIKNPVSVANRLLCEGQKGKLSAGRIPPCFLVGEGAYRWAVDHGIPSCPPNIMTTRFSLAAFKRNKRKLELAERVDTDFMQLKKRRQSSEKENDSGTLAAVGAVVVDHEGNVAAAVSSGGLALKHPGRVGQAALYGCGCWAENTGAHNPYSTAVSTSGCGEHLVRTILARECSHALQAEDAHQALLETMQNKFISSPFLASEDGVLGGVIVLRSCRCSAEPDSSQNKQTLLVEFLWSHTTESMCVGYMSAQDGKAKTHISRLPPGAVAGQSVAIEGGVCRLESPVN
Briefly: Surface plasmon resonance on immobilized full-length, inactive Taspase 1. Format: binding. Conditions: for ka / kd: Table S3, n = 2. Here is the method: SPR measurements were conducted as described.[9,10]
First, we utilized an established surface plasmon resonance (SPR) assay to evaluate the overall binding of our ligands to Taspase 1 (Fig. 3).[10,54] […] High affinities were observed, with KD values in the single micromolar range (Fig. 3, and Table S2).
Fig. 3 Photoswitchable tweezer constructs bind Taspase 1 with SPR binding affinities in the low micromolar range. […] Duplicate measurements were performed, with the respective curves shown in the same colour at different brightness levels (right). […] KD values (Table S2) were determined through kinetic evaluation by fitting the individual curves to a 1 : 1 binding model. Detailed SPR data are provided in the SI (Table S3). Composed with https://BioRender.com. […] No printed text gives the condition. In each entry the first value is the upper row and the second is the lower row.
Supplementary Table S3. Kinetic parameters of photoswitchable tweezer constructs as determined by SPR (see Fig. 3). Values were derived from fitted sensorgrams with a 1:1 two state binding model from n = 2 measurements for the indicated constructs. Analysis was performed using the Trace Drawer software 1.9.2 (TraceDrawer Software, Sweden). […]
Background: SPR reads the build-up and loss of mass on a sensor chip optically.

In experiment [2] the target is T2, Taspase 1/Importin α interaction (Homo sapiens, UniProt Q9H6P5, D233A/T234A).
T2 construct: with full-length Taspase 1 in the recombinant pull-down assay
T2 sequence (Q9H6P5 1-420 D233A/T234A): T1 sequence (Q9H6P5 1-420 D233A/T234A)
Briefly: Recombinant pull-down assay, GST-Importin α bait and Taspase 1-His prey. The class given is biochemical. Conditions: percentage of the PPI of Importin α with full-length Taspase 1, ligand conc. 25 µM, n = 3. Here is the method:
Pull-down assay: recombinant pull-down assays were performed as described.[9,10] For details on the assay workflow, see SI (Fig. S6).
Pull-down assays were conducted with 100 μM of TWAAP3 in either its Z or E isomer form or left untreated (un.), omitting the ligand. […] To achieve the respective Z or E isomer, TWAAP3 was irradiated with UV light (365 nm) or green light (520 nm) prior to incubation. All samples contained 3% DMSO during ligand incubation. Negative controls included samples lacking either GST-Importin α (-Iα) or Taspase 1 (-T). *, p < 0.05, t-test. Composed with https://BioRender.com.
Figure S6. Controls for pull-down assays with TWAAP constructs. A. Schematic assay
representation: GST -Importin α was immobilized on a glutathione -coated Sepharose matrix in a spin
column. After GST binding, Taspase 1-His pre-incubated with tweezer constructs was added. […]

Where [3] appears, read: E enriched isomer, Table S2, read-out: KD (E).
[4] abbreviates: E isomer, ligand conc. 0.06 - 25 µM, Table S4, read-out: KD TW (SPR, full-length protein).
[5] abbreviates: Z enriched isomer, Table S2, read-out: KD (Z).
Where [6] appears, read: Z isomer, ligand conc. 0.06 - 25 µM, Table S4, read-out: KD TW (SPR, full-length protein).

The Kd is the constant that tells how readily two partners part at equilibrium. As for `Cc1nn(-c2ccc(-n3cc(CCOP(=O)(O)Oc4c5c(c(OP(=O)(O)O)c6c4C4CC6c6cc7c(cc64)C4CC7c6ccccc64)C4CC5c5cc6c(cc54)C4CC6c5ccccc54)nn3)cc2)c(C)c1N=Nc1ccc(-n2cc(CCOP(=O)(O)Oc3c4c(c(OP(=O)(O)O)c5c3C3CC5c5cc6c(cc53)C3CC6c5ccccc53)C3CC4c4cc5c(cc43)C3CC5c4ccccc43)nn2)cc1` [TWAAP0], the Kd in experiment [1] (setting [3]) amounted to 0.71 µM; in experiment [1] (setting [4]), 0.7 µM; in experiment [1] (setting [5]) it was 2.87 µM; in experiment [1] (setting [6]), 2.9 µM. The SPR signal result in experiment [1] (E isomer) and in experiment [1] (Z isomer) was “approximately 300 μRIU” in each case. The “association rate constant (ka)” value is on record as 1.04 × 10^3 M^1 s^1 in experiment [1] (E isomer) and 1.12 × 10^3 M^1 s^1 in experiment [1] (Z isomer). For the same molecule, the “dissociation rate constant (kd)” value came to 0.000743 s⁻¹ in experiment [1] (E isomer) and 0.00322 s⁻¹ in experiment [1] (Z isomer). Further, the ka in experiment [1] (isomer E) was determined as 1120 ± 34 M⁻¹ s⁻¹; in experiment [1] (isomer Z), 1040 ± 20.5 M⁻¹ s⁻¹. The kd in experiment [1] (isomer E) worked out at 0.00322 ± 7.17e-07 s⁻¹.
Take `Cc1nn(Cc2cn(CCOP(=O)(O)Oc3c4c(c(OP(=O)(O)O)c5c3C3CC5c5cc6c(cc53)C3CC6c5ccccc53)C3CC4c4cc5c(cc43)C3CC5c4ccccc43)nn2)c(C)c1N=Nc1ccc(-c2cn(CCOP(=O)(O)Oc3c4c(c(OP(=O)(O)O)c5c3C3CC5c5cc6c(cc53)C3CC6c5ccccc53)C3CC4c4cc5c(cc43)C3CC5c4ccccc43)nn2)cc1` [TWAAP2]: the dissociation constant (Kd) in experiment [1] (setting [3]) was found to be 5.67 µM; in experiment [1] (setting [4]), 5.7 µM; in experiment [1] (setting [5]), 4.28 µM; in experiment [1] (setting [6]), 4.3 µM. Moreover, the ka turned out to be 1170 ± 96.4 M⁻¹ s⁻¹ in experiment [1] (isomer E) and 750 ± 76.2 M⁻¹ s⁻¹ in experiment [1] (isomer Z). Further, the kd came to 0.00501 ± 9.88e-07 s⁻¹ in experiment [1] (isomer E) and 0.00426 ± 1.03e-06 s⁻¹ in experiment [1] (isomer Z).
For the molecule `Cc1nn(-c2ccc(-c3cn(CCOP(=O)(O)Oc4c5c(c(OP(=O)(O)O)c6c4C4CC6c6cc7c(cc64)C4CC7c6ccccc64)C4CC5c5cc6c(cc54)C4CC6c5ccccc54)nn3)cc2)c(C)c1N=Nc1ccc(-c2ccc(-c3cn(CCOP(=O)(O)Oc4c5c(c(OP(=O)(O)O)c6c4C4CC6c6cc7c(cc64)C4CC7c6ccccc64)C4CC5c5cc6c(cc54)C4CC6c5ccccc54)nn3)cc2)cc1` [TWAAP3], the equilibrium dissociation constant (Kd) in experiment [1] (setting [3]) stood at 4.05 µM; in experiment [1] (setting [4]), 4.1 µM; in experiment [1] (setting [5]), 2.67 µM; in experiment [1] (setting [6]) it was 2.7 µM. Further, the figures for the SPR signal result in experiment [1] (E isomer) and in experiment [1] (Z isomer) were “approximately 120 μRIU” and “about 500 μRIU”, respectively. The entries for the “association rate constant (ka)” value in experiment [1] (E isomer) and in experiment [1] (Z isomer) were 3.81 × 10^3 M^1 s^1 and 9.57 × 10^2 M^1 s^1, respectively. For the same molecule, the “dissociation rate constant (kd)” value in experiment [1] (E isomer) was 1.53 × 10^−2 s^1; in experiment [1] (Z isomer) it was 2.56 × 10^−3 s^1. The results for the ka in experiment [1] (isomer E) and in experiment [1] (isomer Z) were 957 ± 56.1 M⁻¹ s⁻¹ and 3810 ± 2090 M⁻¹ s⁻¹, respectively. In addition, the results for the kd in experiment [1] (isomer E) and in experiment [1] (isomer Z) were 0.00256 ± 4.04e-06 s⁻¹ and 0.0153 ± 2.5e-05 s⁻¹, respectively. In addition, the entries for the “PPI TW (pull-down, full-length protein)” value in experiment [2] (E isomer) and in experiment [2] (Z isomer) were 90% and 60%, respectively.
Consider `Cc1nn(-c2ccc(C#Cc3ccc(-c4cn(CCOP(=O)(O)Oc5c6c(c(OP(=O)(O)O)c7c5C5CC7c7cc8c(cc75)C5CC8c7ccccc75)C5CC6c6cc7c(cc65)C5CC7c6ccccc65)nn4)cc3)cc2)c(C)c1N=Nc1ccc(C#Cc2ccc(-c3cn(CCOP(=O)(O)Oc4c5c(c(OP(=O)(O)O)c6c4C4CC6c6cc7c(cc64)C4CC7c6ccccc64)C4CC5c5cc6c(cc54)C4CC6c5ccccc54)nn3)cc2)cc1` [TWAAP4], for which the figures for the equilibrium dissociation constant (Kd) in experiment [1] (setting [3]), in experiment [1] (setting [5]) and in experiment [1] (setting [6]) were 2.9 µM, 1.96 µM and 2 µM, respectively. In addition, the ka was found to be 4690 ± 1260 M⁻¹ s⁻¹ in experiment [1] (isomer E) and 3340 ± 688 M⁻¹ s⁻¹ in experiment [1] (isomer Z). For the same molecule, the kd in experiment [1] (isomer E) stood at 0.00918 ± 4.22e-06 s⁻¹; in experiment [1] (isomer Z), 0.00967 ± 4.04e-06 s⁻¹.
`O=P(O)(O)Oc1c2c(c(OP(=O)(O)OCCn3cc(-c4ccc(N=Nc5ccc(-c6cn(CCOP(=O)(O)Oc7c8c(c(OP(=O)(O)O)c9c7C7CC9c9cc%10c(cc97)C7CC%10c9ccccc97)C7CC8c8cc9c(cc87)C7CC9c8ccccc87)nn6)cc5)cc4)nn3)c3c1C1CC3c3cc4c(cc31)C1CC4c3ccccc31)C1CC2c2cc3c(cc21)C1CC3c2ccccc21` [TWAB1]: the results for the Kd in experiment [1] (setting [3]), in experiment [1] (setting [4]) and in experiment [1] (setting [5]) were 9.32 µM, 9.3 µM and 9.2 µM, respectively. For the same molecule, the ka in experiment [1] (isomer E) worked out at 596 ± 116 M⁻¹ s⁻¹. Further, the kd in experiment [1] (isomer E) stood at 0.000548 ± 2.4e-05 s⁻¹.
